PMC9611297, “Design, Synthesis, Anticancer Activity and Molecular Docking of New 1,2,3-Triazole-Based Glycosides Bearing 1,3,4-Thiadiazolyl, Indolyl and Arylacetamide Scaffolds” (Molecules, 2022)
Read-outs that look alike come from different tables or passages of the source.

Tests used:
[1] = system: MCF-7 (human breast adenocarcinoma) cell line; test: MTT cytotoxicity assay, MCF-7; details: read-out: IC50 (µM) ± SD MCF-7
Procedure: (§3) This test is based on MTT cleavage by mitochondrial dehydrogenases from viable cells [50, 51, 52]. […] After incubation, the media were removed, and 40 µL of MTT (2.5 mg mL^−1) was added to each well. Incubation was resumed for an additional 4 h. The purple formazan dye crystals were solubilized with 200 µL DMSO. Absorbance was measured at 590 nm in a Spectra Max Paradigm Multi-Mode microplate reader (Molecular Devices, LLC, San Jose, CA, USA). Relative cell viability was expressed as the mean percentage of viable cells compared to the untreated control cells.
(§4) All experiments were conducted in triplicate and repeated on three different days. All values are reported as mean ± SD. IC50 values were determined by SPSS Inc. probit analysis (IBM Corp., Armonk, NY, USA).

[2] = system: HCT-116 (human colorectal carcinoma) cell line; test: MTT cytotoxicity assay, HCT-116; details: read-out: IC50 (µM) ± SD HCT-116
Procedure: as §3, §4

EGFR^WT = EGFR^WT (Homo sapiens, UniProt P00533); test: EGFR^WT kinase inhibition (HTRF assay); assay type: biochemical; details: ATP 1.65 μM, 30 min, room temperature, read-out: IC50 (Mean ± SEM) (µM) EGFR^WT
Procedure: (§1) A homogeneous time-resolved fluorescence (HTRF) assay was applied in this test (Sigma). […] The assay was conducted for 30 min at room temperature. The reaction was stopped by the addition of detection reagents that contained EDTA. […] Three independent experiments were performed for each concentration.

EGFR^T790M = EGFR^T790M (Homo sapiens, UniProt P00533, T790M); test: EGFR^T790M kinase inhibition (HTRF assay); assay type: biochemical; details: ATP 1.65 μM, 30 min, room temperature, read-out: IC50 (Mean ± SEM) (µM) EGFR^T790M
Procedure: as §1

HER-2 = HER-2 (Homo sapiens, UniProt P04626); test: HER-2 kinase inhibition (HTRF assay); assay type: biochemical; details: ATP 1.65 μM, 30 min, room temperature, read-out: IC50 (Mean ± SEM) (µM) HER-2 (converted)
Procedure: as §1

MCF-7 cells [3] = test: Annexin V/PI apoptosis detection by flow cytometry; assay type: cell-based, human; details: MCF-7, 24 h, at IC50 concentration (7: 0.5 μM; 15: 0.6 μM); for Apoptosis Late: control 0.28%; for Apoptosis Early: control 0.46%; for Necrosis: control 1.25%; for Apoptosis Total: control 1.99
Procedure: The proportion of late apoptosis obtained with compounds 7 and 15 was higher than that of the early phase, leading to the induction of apoptosis and confirming the effectiveness of these derivatives in cancer therapy.
(§2) Apoptosis investigation and cell cycle analysis were performed by flow cytometry. MCF-7 cells were seeded at 8 × 10^4 and incubated at 37 °C in 5% CO2 overnight. After treatment with the tested compounds 7 and 15 for 24 h, cell pellets were collected and centrifuged (300 g, 5 min). For cell cycle analysis, cell pellets were fixed with 70% ethanol on ice for 15 min and collected again. The pellets were incubated with propidium iodide (PI) staining solution at room temperature for 1 h and analyzed with a Gallios flow cytometer (Beckman Coulter, Brea, CA, USA). Apoptosis detection was carried out by the FITC AnnexinV/PI commercial kit (Becton Dickenson, Franklin Lakes, NJ, USA) following the manufacturer’s protocol. The samples were analyzed by fluorescence-activated cell sorting (FACS) with a Gallios flow cytometer (Beckman Coulter, Brea, CA, USA) within 1 h after staining. Data were analyzed using Kaluza v 1.2 (Beckman Coulter).

MCF-7 cells [4] = test: Cell cycle analysis (PI staining, flow cytometry); assay type: cell-based, human; details: MCF-7, 24 h treatment; for cell accumulation at sub-G1 phase (%pre G): untreated 1.99%; for cell accumulation at S phase (%DIP S): untreated 33.85%
Procedure: Moreover, the cessation of cell division at cell cycle checkpoints is considered one of the main roles of anticancer therapeutics.
as §2

[5] = MTT assay, 48 h incubation, mean ± SD

Chain of HER-2 (P04626 23-1255): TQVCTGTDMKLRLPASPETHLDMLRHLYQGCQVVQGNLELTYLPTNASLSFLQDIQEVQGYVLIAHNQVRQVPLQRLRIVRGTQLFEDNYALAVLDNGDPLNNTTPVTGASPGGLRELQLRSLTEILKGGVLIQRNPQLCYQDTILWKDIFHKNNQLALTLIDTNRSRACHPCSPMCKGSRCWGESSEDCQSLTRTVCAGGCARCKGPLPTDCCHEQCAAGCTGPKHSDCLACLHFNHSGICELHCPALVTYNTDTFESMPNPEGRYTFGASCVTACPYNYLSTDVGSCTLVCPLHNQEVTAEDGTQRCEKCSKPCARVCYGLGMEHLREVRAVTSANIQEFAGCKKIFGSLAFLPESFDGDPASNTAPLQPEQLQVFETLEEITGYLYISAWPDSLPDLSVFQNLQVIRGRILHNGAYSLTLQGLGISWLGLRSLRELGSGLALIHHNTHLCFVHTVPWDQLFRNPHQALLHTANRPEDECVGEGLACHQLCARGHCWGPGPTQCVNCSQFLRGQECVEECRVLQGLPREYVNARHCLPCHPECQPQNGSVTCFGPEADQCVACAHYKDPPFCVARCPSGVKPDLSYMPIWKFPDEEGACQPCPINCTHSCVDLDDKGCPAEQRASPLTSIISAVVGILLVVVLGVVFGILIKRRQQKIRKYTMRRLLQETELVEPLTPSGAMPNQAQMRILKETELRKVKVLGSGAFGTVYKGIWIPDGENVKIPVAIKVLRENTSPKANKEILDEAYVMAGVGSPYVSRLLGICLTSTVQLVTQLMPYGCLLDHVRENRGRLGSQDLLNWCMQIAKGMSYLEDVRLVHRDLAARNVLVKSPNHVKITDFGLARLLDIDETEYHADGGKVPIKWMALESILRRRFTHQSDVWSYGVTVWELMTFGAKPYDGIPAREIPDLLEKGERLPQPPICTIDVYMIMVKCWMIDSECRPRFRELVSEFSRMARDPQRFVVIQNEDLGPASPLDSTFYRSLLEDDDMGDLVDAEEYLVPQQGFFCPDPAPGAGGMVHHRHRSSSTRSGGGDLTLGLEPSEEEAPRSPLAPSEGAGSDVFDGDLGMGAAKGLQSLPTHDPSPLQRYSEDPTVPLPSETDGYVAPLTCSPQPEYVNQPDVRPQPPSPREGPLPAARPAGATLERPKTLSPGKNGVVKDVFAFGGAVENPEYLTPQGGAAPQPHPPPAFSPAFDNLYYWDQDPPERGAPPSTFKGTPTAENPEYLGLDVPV
Chain of EGFR^T790M (P00533 25-1210 T790M): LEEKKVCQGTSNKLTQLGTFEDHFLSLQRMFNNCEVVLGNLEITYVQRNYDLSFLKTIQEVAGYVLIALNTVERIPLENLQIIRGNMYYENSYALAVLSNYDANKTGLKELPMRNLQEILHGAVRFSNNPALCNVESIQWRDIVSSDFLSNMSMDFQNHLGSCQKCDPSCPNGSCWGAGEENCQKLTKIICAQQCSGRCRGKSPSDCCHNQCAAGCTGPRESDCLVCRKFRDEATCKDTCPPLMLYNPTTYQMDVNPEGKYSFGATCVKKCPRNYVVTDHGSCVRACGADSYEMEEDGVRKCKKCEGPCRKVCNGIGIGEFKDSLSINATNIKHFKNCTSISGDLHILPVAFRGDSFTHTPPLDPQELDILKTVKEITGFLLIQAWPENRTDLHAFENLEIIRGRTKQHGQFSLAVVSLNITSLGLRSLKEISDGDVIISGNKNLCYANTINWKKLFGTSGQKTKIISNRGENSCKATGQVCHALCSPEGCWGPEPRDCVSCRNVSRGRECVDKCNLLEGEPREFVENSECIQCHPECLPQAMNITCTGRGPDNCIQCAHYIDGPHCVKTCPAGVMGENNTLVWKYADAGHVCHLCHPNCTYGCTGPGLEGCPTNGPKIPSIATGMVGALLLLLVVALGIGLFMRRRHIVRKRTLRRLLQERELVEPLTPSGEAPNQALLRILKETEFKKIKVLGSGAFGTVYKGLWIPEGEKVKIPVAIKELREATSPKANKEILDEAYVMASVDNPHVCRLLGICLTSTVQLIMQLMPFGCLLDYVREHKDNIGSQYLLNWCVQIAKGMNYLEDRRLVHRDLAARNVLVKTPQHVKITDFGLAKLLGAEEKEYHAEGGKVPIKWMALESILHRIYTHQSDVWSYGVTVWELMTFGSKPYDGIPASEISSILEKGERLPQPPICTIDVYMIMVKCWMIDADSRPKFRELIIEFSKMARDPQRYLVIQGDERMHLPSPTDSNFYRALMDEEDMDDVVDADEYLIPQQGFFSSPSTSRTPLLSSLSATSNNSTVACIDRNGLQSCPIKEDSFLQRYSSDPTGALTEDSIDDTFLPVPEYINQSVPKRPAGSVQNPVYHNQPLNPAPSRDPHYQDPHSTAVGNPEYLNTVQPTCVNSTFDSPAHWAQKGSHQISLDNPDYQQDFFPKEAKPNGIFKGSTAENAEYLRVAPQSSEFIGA
Chain of EGFR^WT (P00533 25-1210): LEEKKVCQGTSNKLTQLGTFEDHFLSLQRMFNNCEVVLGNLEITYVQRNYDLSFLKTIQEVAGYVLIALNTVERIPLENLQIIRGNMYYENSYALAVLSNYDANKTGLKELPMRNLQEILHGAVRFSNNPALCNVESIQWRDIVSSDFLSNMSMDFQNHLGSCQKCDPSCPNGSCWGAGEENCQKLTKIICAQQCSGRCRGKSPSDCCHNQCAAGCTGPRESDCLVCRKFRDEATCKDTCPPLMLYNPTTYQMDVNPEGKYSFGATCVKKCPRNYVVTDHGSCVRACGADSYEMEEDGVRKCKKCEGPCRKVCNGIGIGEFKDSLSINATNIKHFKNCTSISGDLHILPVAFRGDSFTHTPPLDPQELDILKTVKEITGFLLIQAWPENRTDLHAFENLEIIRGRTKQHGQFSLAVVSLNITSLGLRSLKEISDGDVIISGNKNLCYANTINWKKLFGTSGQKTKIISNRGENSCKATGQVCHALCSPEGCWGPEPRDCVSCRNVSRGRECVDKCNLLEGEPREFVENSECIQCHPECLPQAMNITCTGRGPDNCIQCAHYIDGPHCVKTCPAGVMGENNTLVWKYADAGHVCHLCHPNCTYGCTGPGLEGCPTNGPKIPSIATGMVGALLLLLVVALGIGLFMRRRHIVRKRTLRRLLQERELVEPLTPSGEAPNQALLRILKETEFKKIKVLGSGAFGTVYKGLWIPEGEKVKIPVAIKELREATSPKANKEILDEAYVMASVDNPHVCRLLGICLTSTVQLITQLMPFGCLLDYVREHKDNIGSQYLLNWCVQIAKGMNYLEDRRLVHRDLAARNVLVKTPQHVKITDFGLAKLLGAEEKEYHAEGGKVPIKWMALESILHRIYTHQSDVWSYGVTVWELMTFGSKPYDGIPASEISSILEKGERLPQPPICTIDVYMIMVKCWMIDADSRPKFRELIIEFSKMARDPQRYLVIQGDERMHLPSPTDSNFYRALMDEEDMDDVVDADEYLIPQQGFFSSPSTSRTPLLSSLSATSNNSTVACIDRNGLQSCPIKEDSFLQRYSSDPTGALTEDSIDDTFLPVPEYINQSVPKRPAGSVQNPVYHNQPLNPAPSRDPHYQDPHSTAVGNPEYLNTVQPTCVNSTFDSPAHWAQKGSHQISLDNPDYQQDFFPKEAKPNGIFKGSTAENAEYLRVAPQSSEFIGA

| Compound | IC50 ([1]; Homo sapiens, MCF7, 48 h) | IC50 ([2]; Homo sapiens, HCT-116, 48 h) | melting point | also measured |
| --- | --- | --- | --- | --- |
| COc1cccc2c1C(=O)c1c(O)c3c(c(O)c1C2=O)C[C@@](O)(C(=O)CO)C[C@@H]3O[C@H]1C[C@H](N)[C@H](O)[C@H](C)O1 [Doxorubicin, reference compound] | 9.4 ± 0.1 µM | 12.1 ± 0.2 µM | – | – |
| CCn1cc(C=Nc2nnc(SCCn3cc(CO[C@@H]4OC[C@@H](OC(C)=O)[C@H](OC(C)=O)[C@H]4OC(C)=O)nn3)s2)c2ccccc21 [Compound 6, 1-(1-Ethyl-1H-indol-3-yl)-N-(5-((2-(4-({[2,3,4-tri-O-acetyl-β-D-xylopyranos-yl]oxy}methyl)-1H-1,2,3-triazol-1-yl)ethyl)thio)-1,3,4-thiadiazol-2-yl)methanimine] | 10.8 ± 1.5 µM | 20.8 ± 0.2 µM | 136 to 138 °C | – |
| CCn1cc(C=Nc2nnc(SCCn3cc(CO[C@@H]4O[C@H](CO)[C@@H](O)[C@H](O)[C@H]4O)nn3)s2)c2ccccc21 [Compound 7, 1-(1-Ethyl-1H-indol-3-yl)-N-(5-((2-(4-({[β-D-glucopyranosyl]oxy}methyl)-1H-1,2,3-triazol-1-yl)ethyl)thio)-1,3,4-thiadiazol-2-yl)methanimine] | 0.5 µM | 15.5 ± 0.2 µM | 210 to 213 °C | IC50 (EGFR^WT): 0.3 ± 0.01 µM; IC50 (EGFR^T790M): 1.12 ± 0.55 µM; IC50 (HER-2): 2.25 ± 0.3 µM; Apoptosis Late (MCF-7 cells [3]): 18.81%; Apoptosis Early (MCF-7 cells [3]): 4.39%; Necrosis (MCF-7 cells [3]): 11.41%; Apoptosis Total (MCF-7 cells [3]): 34.61%; cell accumulation at sub-G1 phase (%pre G) (MCF-7 cells [4]): 34.61%; cell accumulation at S phase (%DIP S) (MCF-7 cells [4]): 43.51% |
| O=C(Cn1cc(CO[C@@H]2O[C@H](CO)[C@H](O)[C@H](O)[C@H]2O)nn1)Nc1ccc(F)cc1 [Compound 18, 2-(4-({[β-D-Galactopyranosyl]oxy}methyl)-1H-1,2,3-triazol-1-yl)-N-(4-fluorophenyl)acetamide] | 31.6 ± 0.5 µM | 28.8 ± 0.1 µM | – | – |
| Cc1ccc(NC(=O)Cn2cc(CO[C@@H]3OC[C@@H](O)[C@H](O)[C@H]3O)nn2)cc1 [Compound 15, 2-(4-({[β-D-Xylopyranosyl]oxy}methyl)-1H-1,2,3-triazol-1-yl)-N-(p-tolyl)acetamide] | 0.6 µM | 11.4 ± 0.3 µM | 193 to 194 °C | IC50 (EGFR^WT): 0.21 ± 0.05 µM; IC50 (EGFR^T790M): 1.5 ± 0.11 µM; IC50 (HER-2): 2.18 ± 0.42 µM; Apoptosis Late (MCF-7 cells [3]): 25.48%; Apoptosis Early (MCF-7 cells [3]): 2.69%; Necrosis (MCF-7 cells [3]): 14.28%; Apoptosis Total (MCF-7 cells [3]): 42.45%; cell accumulation at sub-G1 phase (%pre G) (MCF-7 cells [4]): 42.45%; cell accumulation at S phase (%DIP S) (MCF-7 cells [4]): 52.08% |
| CCn1cc(/C=N\c2nnc(S)s2)c2ccccc21 [Compound 1] | 18.1 ± 0.2 µM | 46.9 ± 0.5 µM | – | – |
| CCn1cc(C=Nc2nnc(SCCn3cc(CO[C@@H]4O[C@H](COC(C)=O)[C@@H](OC(C)=O)[C@H](OC(C)=O)[C@H]4OC(C)=O)nn3)s2)c2ccccc21 [Compound 5, 1-(1-Ethyl-1H-indol-3-yl)-N-(5-((2-(4-({[2,3,4,6-tetra-O-acetyl-β-D-glucopyranosyl]oxy}methyl)-1H-1,2,3-triazol-1-yl)ethyl)thio)-1,3,4-thiadiazol-2-yl)methanimine] | 13.9 ± 0.2 µM | 22.6 ± 0.2 µM | 131 to 132 °C | – |
| Cc1ccc(NC(=O)CN=[N+]=[N-])cc1 [Compound 9a] | 24.1 ± 0.3 µM | 42.3 ± 0.6 µM | – | – |
| O=C(Cn1cc(CO[C@@H]2OC[C@@H](O)[C@H](O)[C@H]2O)nn1)Nc1ccc(F)cc1 [Compound 17, 2-(4-({[β-D-Xylopyranosyl]oxy}methyl)-1H-1,2,3-triazol-1-yl)-N-(4-fluorophenyl)acetamide] | 30.1 ± 0.4 µM | 26.5 ± 0.3 µM | 197 to 198 °C | – |
| CCn1cc(C=Nc2nnc(SCCn3cc(CO[C@@H]4OC[C@@H](O)[C@H](O)[C@H]4O)nn3)s2)c2ccccc21 [Compound 8, 1-(1-Ethyl-1H-indol-3-yl)-N-(5-((2-(4-({[β-D-Xylopyranosyl]oxy}methyl)-1H-1,2,3-triazol-1-yl)ethyl)thio)-1,3,4-thiadiazol-2-yl)methanimine] | 4.2 ± 0.1 µM | 4.6 ± 0.1 µM | 203 to 204 °C | IC50 (EGFR^WT): 0.38 ± 0.05 µM; IC50 (EGFR^T790M): 1.95 ± 0.02 µM; IC50 (HER-2): 2.77 ± 0.13 µM |
| CC(=O)OC[C@H]1O[C@@H](OCc2cn(CC(=O)Nc3ccc(C)cc3)nn2)[C@H](OC(C)=O)[C@@H](OC(C)=O)[C@H]1OC(C)=O [Compound 12, 2-(4-({[2,3,4,6-Tetra-O-acetyl-β-D-galactopyranosyl]oxy}methyl)-1H-1,2,3-triazol-1-yl)-N-(p-tolyl)acetamide] | 5.7 ± 0.1 µM | 2.2 ± 0.1 µM | 98 to 99 °C | IC50 (EGFR^WT): 12.7 ± 0.15 µM; IC50 (EGFR^T790M): 15.2 ± 0.2 µM; IC50 (HER-2): 18.4 µM |
| CC(=O)OC[C@H]1O[C@@H](OCc2cn(CC(=O)Nc3ccc(F)cc3)nn2)[C@H](OC(C)=O)[C@@H](OC(C)=O)[C@H]1OC(C)=O [Compound 14, 2-(4-({[2,3,4,6-Tetra-O-acetyl-β-D-galactopyranosyl]oxy}methyl)-1H-1,2,3-triazol-1-yl)-N-(4-fluorophenyl)acetamide] | 35.3 ± 0.3 µM | 33.8 ± 0.3 µM | – | – |
| Cc1ccc(NC(=O)Cn2cc(CO[C@@H]3O[C@H](CO)[C@H](O)[C@H](O)[C@H]3O)nn2)cc1 [Compound 16, 2-(4-({[β-D-Galactopyranosyl]oxy}methyl)-1H-1,2,3-triazol-1-yl)-N-(p-tolyl)acetamide] | 20.3 ± 0.9 µM | 35.7 ± 0.4 µM | 199 to 200 °C | – |
| CCn1cc(C=Nc2nnc(SCCBr)s2)c2ccccc21 [Compound 2, N-(5-((2-Bromoethyl)thio)-1,3,4-thiadiazol-2-yl)-1-(1-ethyl-1H-indol-3-yl)methanimine] | – | – | 90 to 92 °C | IC50 [1, 5]: 14.1 ± 0.3 µM; IC50 [2, 5]: 52.7 ± 0.6 µM |
| CCn1cc(C=Nc2nnc(SCCN=[N+]=[N-])s2)c2ccccc21 [Compound 3, N-(5-((2-Azidoethyl)thio)-1,3,4-thiadiazol-2-yl)-1-(1-ethyl-1H-indol-3-yl)methanimine] | 1.1 ± 0.1 µM | 30.8 ± 0.4 µM | 101 to 102 °C | – |
| [N-]=[N+]=NCC(=O)Nc1ccc(F)cc1 [Compound 9b] | 26.4 ± 0.3 µM | 33.3 ± 0.4 µM | – | – |
| CC(=O)O[C@@H]1[C@@H](OC(C)=O)[C@H](OCc2cn(CC(=O)Nc3ccc(C)cc3)nn2)OC[C@H]1OC(C)=O [Compound 11, 2-(4-({[2,3,4-Tri-O-acetyl-β-D-xylopyranosyl]oxy}methyl)-1H-1,2,3-triazol-1-yl)-N-(p-tolyl)acetamide] | 0.8 µM | 15.4 ± 0.2 µM | 95 to 96 °C | IC50 (EGFR^WT): 6.45 ± 0.1 µM; IC50 (EGFR^T790M): 11.8 ± 0.05 µM; IC50 (HER-2): 8.6 ± 0.2 µM |
| CC(=O)O[C@@H]1[C@@H](OC(C)=O)[C@H](OCc2cn(CC(=O)Nc3ccc(F)cc3)nn2)OC[C@H]1OC(C)=O [Compound 13, 2-(4-({[2,3,4-Tri-O-acetyl-β-D-xylopyranosyl]oxy}methyl)-1H-1,2,3-triazol-1-yl)-N-(4-fluorophenyl)acetamide] | 34.4 ± 0.4 µM | 38.2 ± 0.5 µM | 142 to 144 °C | – |
